Data published in ChEMBL document CHEMBL4400574, “Chemical synthesis and biological activity of novel brominated 7-deazaadenosine-3',5'-cyclic monophosphate derivatives” (Bioorg Med Chem, 2019).

Legend:
[1] = biological target: T1, Rap guanine nucleotide exchange factor 3 (Homo sapiens, UniProt O95398); assay: Inhibition of 8Fluo-cAMP binding to recombinant human His-tagged EPAC1 (157 to 881 residues) expressed in Escherichia coli measured after 5 mins by fluorescence polarization assay
T1 sequence (O95398 whole entry): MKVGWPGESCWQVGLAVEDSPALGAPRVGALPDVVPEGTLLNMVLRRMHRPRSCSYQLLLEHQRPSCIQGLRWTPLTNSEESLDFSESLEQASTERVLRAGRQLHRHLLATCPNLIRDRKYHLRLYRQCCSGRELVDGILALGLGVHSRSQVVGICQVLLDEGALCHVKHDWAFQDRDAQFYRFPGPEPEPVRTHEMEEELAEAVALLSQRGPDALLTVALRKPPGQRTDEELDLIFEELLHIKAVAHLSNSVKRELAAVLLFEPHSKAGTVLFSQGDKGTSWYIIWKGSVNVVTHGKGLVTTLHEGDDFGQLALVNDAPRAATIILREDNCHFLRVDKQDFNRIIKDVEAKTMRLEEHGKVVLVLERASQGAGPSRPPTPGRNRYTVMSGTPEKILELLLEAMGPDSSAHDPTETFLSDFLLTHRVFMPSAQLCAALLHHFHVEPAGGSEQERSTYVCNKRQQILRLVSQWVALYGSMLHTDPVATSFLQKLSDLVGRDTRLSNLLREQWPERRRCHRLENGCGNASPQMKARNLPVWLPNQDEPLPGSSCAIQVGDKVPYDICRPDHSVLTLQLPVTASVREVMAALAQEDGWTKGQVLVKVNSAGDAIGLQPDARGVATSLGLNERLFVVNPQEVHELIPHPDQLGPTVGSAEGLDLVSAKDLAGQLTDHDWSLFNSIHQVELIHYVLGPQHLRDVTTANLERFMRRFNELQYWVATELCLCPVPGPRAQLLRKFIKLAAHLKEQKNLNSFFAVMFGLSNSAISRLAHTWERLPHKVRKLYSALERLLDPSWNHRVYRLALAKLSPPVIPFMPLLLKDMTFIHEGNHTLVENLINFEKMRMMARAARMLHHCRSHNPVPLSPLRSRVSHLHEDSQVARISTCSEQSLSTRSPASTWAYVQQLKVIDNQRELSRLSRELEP

[2] = biological target: T2, Rap guanine nucleotide exchange factor 4 (Mus musculus, UniProt Q9EQZ6); assay: Inhibition of 8Fluo-cAMP binding to DEP domain deficient mouse EPAC2 (280 to 998 residues) measured after 5 mins by fluorescence polarization assay
T2 sequence (Q9EQZ6 whole entry): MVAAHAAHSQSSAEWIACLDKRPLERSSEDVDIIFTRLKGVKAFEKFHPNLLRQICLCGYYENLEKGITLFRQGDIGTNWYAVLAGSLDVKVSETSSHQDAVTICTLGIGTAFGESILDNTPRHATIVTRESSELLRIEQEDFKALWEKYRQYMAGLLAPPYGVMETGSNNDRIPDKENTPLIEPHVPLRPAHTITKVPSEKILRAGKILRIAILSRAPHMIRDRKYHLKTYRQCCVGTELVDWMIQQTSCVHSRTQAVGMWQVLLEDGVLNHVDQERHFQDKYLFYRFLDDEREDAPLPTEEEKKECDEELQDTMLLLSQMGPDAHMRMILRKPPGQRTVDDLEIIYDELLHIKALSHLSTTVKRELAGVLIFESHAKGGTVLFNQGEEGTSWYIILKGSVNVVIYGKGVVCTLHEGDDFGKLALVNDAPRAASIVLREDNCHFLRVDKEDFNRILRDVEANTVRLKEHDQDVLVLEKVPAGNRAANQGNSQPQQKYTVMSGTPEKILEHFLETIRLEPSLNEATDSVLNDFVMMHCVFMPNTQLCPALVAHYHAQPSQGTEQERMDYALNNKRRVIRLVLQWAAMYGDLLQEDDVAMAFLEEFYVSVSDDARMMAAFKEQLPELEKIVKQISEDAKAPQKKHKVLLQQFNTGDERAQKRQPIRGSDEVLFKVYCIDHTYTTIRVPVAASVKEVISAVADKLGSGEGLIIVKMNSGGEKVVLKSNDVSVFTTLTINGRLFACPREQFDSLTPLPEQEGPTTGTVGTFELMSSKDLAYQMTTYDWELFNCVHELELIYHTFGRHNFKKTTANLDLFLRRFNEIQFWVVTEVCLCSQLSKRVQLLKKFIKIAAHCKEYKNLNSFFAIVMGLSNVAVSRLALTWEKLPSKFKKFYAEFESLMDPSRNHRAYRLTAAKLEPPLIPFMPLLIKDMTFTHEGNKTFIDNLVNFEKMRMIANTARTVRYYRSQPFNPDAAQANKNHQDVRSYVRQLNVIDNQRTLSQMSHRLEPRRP

[3] = biological target: CNGA2/CNGA4/CNGB1 (Rattus norvegicus, UniProt O35788+Q00195+Q64359); assay: Activation of recombinant rat CNGA2/CNGA4/CNGB1b heterotetramer expressed in Xenopus laevis oocyte assessed as increase in current amplitude by patch-clamp electrophysiology method
Sequence of CNGA2/CNGA4/CNGB1 (Q64359 whole entry, one chain of several): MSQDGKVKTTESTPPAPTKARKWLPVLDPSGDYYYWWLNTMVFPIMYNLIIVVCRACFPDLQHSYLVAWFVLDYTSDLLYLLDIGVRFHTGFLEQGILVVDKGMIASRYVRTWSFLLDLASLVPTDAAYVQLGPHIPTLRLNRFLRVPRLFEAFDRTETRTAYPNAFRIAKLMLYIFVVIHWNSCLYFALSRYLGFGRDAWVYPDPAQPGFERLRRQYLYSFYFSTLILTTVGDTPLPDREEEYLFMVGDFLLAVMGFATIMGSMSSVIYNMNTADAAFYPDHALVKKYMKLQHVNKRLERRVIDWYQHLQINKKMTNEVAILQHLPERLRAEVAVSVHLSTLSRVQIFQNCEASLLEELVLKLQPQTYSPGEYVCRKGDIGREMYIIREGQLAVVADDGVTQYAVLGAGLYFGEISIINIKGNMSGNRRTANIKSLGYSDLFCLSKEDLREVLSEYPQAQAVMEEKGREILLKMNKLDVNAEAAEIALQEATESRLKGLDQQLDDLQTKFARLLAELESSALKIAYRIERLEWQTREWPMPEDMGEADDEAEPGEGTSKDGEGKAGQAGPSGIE
Sequence of CNGA2/CNGA4/CNGB1 (O35788 whole entry, one chain of several): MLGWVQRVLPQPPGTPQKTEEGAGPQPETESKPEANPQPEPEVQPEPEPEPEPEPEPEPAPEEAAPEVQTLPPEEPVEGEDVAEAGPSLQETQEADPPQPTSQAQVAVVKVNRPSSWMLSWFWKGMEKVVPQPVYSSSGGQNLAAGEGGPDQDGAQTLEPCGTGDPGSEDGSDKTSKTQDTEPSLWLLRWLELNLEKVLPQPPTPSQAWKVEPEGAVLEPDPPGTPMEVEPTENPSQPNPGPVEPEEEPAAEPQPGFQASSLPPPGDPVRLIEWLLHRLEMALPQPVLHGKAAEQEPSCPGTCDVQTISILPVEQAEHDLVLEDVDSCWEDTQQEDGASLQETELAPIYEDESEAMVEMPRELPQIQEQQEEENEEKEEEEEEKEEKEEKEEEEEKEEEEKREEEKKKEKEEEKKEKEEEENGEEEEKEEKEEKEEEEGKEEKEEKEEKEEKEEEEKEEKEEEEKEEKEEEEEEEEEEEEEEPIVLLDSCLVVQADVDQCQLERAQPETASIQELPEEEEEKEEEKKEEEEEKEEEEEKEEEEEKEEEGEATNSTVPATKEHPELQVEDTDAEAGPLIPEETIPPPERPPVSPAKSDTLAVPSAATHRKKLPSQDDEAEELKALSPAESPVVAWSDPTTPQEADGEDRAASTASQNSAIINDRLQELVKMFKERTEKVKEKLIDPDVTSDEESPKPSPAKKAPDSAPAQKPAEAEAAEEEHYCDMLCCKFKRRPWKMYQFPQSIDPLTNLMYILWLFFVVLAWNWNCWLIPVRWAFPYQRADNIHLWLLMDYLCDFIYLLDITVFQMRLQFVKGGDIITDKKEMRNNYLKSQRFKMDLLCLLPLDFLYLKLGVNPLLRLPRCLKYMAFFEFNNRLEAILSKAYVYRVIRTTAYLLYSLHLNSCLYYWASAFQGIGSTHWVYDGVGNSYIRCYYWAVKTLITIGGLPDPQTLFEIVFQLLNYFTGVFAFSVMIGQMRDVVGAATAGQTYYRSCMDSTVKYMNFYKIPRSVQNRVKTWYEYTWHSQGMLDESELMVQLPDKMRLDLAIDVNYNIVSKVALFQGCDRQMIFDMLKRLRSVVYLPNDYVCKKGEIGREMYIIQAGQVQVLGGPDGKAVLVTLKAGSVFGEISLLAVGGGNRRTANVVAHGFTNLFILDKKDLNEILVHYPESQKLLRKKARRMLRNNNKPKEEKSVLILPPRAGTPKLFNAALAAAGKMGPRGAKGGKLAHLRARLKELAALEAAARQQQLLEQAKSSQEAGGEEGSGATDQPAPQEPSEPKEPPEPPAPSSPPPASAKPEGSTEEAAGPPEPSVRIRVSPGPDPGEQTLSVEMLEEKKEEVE

[4] = biological target: cAMP-dependent protein kinase type I-alpha regulatory subunit (Homo sapiens) (UniProt P10644)
Sequence of cAMP-dependent protein kinase type I-alpha regulatory subunit (Homo sapiens) (P10644 whole entry): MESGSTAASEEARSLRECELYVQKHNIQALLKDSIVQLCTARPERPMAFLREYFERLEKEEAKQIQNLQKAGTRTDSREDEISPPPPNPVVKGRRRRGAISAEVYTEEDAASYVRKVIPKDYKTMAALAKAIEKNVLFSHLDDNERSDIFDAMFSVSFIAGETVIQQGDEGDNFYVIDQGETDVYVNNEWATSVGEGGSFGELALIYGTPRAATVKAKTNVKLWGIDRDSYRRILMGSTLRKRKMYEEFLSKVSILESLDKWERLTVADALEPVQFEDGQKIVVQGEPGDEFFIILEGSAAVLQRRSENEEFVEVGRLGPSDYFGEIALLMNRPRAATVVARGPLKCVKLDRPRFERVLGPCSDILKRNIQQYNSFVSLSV
Description: Activation of recombinant human PKAR1alpha expressed in Escherichia coli using Kemptide as substrate by spectrophotometric method

[5] = biological target: cAMP-dependent protein kinase type II-alpha regulatory subunit (Homo sapiens) (UniProt P13861)
Sequence of cAMP-dependent protein kinase type II-alpha regulatory subunit (Homo sapiens) (P13861 whole entry): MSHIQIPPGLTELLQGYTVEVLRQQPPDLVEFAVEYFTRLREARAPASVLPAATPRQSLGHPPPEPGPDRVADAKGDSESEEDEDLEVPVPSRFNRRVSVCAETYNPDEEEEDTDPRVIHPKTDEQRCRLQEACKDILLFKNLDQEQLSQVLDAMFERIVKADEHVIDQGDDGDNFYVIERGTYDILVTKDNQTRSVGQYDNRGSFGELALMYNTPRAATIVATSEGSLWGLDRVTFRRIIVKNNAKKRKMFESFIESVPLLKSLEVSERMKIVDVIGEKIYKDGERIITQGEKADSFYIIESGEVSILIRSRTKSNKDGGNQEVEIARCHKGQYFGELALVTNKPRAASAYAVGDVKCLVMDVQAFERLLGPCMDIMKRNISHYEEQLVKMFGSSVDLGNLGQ
Description: Activation of recombinant human PKAR2alpha expressed in Escherichia coli using Kemptide as substrate by spectrophotometric method

[6] = biological target: T3, Cyclic nucleotide-gated channel alpha-2 (Rattus norvegicus, UniProt Q00195); assay: Activation of recombinant rat CNGA2 expressed in Xenopus laevis oocyte assessed as increase in current amplitude by patch-clamp electrophysiology method
T3 sequence (Q00195 whole entry): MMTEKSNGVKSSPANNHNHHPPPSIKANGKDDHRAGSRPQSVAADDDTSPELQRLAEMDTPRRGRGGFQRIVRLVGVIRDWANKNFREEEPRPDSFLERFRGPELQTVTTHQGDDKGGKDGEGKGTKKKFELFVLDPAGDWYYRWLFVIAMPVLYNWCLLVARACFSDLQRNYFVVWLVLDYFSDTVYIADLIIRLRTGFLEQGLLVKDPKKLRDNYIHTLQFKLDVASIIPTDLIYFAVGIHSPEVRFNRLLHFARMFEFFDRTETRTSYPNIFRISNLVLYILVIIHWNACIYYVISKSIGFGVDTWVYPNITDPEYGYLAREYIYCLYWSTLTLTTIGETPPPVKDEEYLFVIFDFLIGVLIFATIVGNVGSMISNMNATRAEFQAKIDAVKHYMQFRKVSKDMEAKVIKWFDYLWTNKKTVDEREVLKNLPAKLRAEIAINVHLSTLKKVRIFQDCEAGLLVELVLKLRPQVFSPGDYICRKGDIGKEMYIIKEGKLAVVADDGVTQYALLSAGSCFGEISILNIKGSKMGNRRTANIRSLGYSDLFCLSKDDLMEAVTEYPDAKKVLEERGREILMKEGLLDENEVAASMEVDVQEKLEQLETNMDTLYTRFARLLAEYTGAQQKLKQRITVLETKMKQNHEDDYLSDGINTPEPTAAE

[7] = biological target: T4, Potassium/sodium hyperpolarization-activated cyclic nucleotide-gated channel 2 (Mus musculus, UniProt O88703); assay: Activation of recombinant mouse HCN2 expressed in Xenopus laevis oocyte assessed as increase in current amplitude at -30 mV holding potential by patch-clamp electrophysiology method
T4 sequence (O88703 whole entry): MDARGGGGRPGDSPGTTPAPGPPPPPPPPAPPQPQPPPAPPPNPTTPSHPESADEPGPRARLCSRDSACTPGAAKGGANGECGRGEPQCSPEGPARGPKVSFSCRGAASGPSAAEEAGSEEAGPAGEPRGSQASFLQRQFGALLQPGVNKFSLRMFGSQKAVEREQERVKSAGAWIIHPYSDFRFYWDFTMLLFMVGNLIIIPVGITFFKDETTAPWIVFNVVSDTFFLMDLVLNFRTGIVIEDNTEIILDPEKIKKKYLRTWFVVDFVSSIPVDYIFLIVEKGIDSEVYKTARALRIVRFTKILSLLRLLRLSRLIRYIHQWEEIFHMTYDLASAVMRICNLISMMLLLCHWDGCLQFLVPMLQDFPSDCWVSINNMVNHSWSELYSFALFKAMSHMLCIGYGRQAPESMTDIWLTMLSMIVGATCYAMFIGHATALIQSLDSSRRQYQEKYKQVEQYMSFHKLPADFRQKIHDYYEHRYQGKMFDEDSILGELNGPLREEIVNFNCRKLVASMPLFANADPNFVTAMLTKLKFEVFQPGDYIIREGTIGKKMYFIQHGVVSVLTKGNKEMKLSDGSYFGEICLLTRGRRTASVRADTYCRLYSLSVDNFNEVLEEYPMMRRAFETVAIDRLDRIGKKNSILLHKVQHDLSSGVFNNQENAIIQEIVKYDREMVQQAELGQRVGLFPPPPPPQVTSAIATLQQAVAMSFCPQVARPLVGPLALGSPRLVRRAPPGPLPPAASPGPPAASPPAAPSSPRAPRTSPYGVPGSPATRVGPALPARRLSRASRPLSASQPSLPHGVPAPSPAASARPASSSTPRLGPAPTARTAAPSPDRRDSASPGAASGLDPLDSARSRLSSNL

Row | Compound | EC50 [1] [nM] | EC50 [2] [nM] | EC50 [3] [nM] | Kact [4] [µM] | Kact [5] [µM] | EC50 [6] [nM] | EC50 [7] [nM]
1 | Nc1ncnc2c1cc(Br)n2[C@@H]1O[C@@H]2COP(=O)(O)O[C@H]2[C@H]1O | 530 | 300 | 630 | 0.043 | 0.072 | 6400 | –
2 | Nc1ncnc2c1nc(Br)n2[C@@H]1O[C@@H]2COP(=O)(O)O[C@H]2[C@H]1O | 1090 | 780 | 1600 | 0.056 | 0.088 | 15400 | –
3 | Nc1ncnc2c1c(Br)cn2[C@@H]1O[C@@H]2COP(=O)(O)O[C@H]2[C@H]1O | 2540 | 2360 | 120 | 0.028 | 0.097 | 540 | –
4 | Nc1ncnc2c1ccn2[C@@H]1O[C@@H]2COP(=O)(O)O[C@H]2[C@H]1O | 2750 | 2060 | 360 | 0.199 | 0.238 | 2080 | 15
